Key:
[1] = target: T1, type V tartrate resistant acid phosphatase (TRAP) (Sus scrofa, UniProt P09889); test: Phage display bio-panning of random 12 amino acid M13 library with immobilized TRAP; format: binding; details: 44 phage clones sequenced after three rounds of bio-panning with TRAP
T1 construct: One was from a purified protein extraction; from tissue; host or cells: gift of Dr. R. M. Roberts (University of Missouri)
T1 sequence (P09889 22-340): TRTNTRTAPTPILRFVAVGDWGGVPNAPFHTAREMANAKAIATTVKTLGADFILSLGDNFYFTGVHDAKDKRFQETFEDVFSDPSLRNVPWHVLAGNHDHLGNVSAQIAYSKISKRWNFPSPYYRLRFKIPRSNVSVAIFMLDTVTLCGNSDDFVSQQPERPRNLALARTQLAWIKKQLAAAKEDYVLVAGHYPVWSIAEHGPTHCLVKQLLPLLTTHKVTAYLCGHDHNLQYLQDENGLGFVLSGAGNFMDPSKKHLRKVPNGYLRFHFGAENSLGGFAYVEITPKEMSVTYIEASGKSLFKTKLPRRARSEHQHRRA
From the text: In phage display either random peptide libraries or cell specific cDNA libraries can be used. Both have been used to target the interactions that take place in bone resporbtion and formation. Generally, the peptides or proteins are expressed on the surface coat of M13 or T7 phage and then these phage are used in a biopanning technique to identify which phage have affinity for a particular substrate (the “bait”). The adherent phage are eluted, amplified and used in another round of panning. After at least three rounds, phage clones are sequenced.
The TRAP used in these experiments was purified to homogeneity and was generously provided by Dr. M. Roberts.
After three rounds of bio-panning, elution and amplification 44 phage clones were selected at random and sequenced. Nine different sequences were identified. They are listed in Table 4 along with their consensus frequency. The most frequent phage sequenced was represented 15 times and the least frequent only a single time.

[2] = test system: osteoblast binding to osteoclast lacunae; test: Competition cell binding assay, osteoblasts on pitted bone wafers; format: cell-based, rat
Experimental: (§1) The 12 amino acid oligopeptide corresponding to the sequence from Clone 5 can inhibit osteoblast binding to osteoclast lacunae. […] (For these experiments, approximately 20% of the area of the wafers was pitted.) A concentration of 50 nM for the oligopeptide blocked osteoblast binding by approximately 66%. A statistically significant inhibition for binding occurred down to a concentration of 10 pM of the oligopeptide.
as §1, with “For” for “(For”, “pitted.” for “pitted.)”
To measure the effect of selected phage peptides on osteoblast binding in osteoclast lacunae we performed a cell binding assay in the presence of increasing concentrations of the phage peptide. Osteoblasts were prelabeled with L-[4,5-^3H]Leucine (250 μCi TRK636-250 μCi, Amersham ) for 24 hrs. The osteoblasts were then added to pitted bone wafers in the presence of increasing concentrations of a synthetic 12 amino acid peptide that was identical to the phage sequence. After a two hour incubation at 37° C. the wafers were washed and the amount of radiolabel associated on each wafer determined by scintillation spectrometry. The specific activity of the cells (i.e. cpm/cell) was used to determine the number of cells adhering to the wafers.

[3] = test system: osteoblast gene products; test: Osteoblast gene expression profile assay (real-time PCR); format: cell-based
Experimental: Both GPC4 and TRIP have been used in the creation of an osteoblast gene expression profile assay. This assay utilizes cDNA primer pairs that can be used to amplify a number of osteoblast gene products with real-time PCR. In addition to GPC4 and TRIP the following are assayed; osteocalcin (a bone specific protein), alkaline phosphatase (an enzyme present in large amounts in osteoblasts, cbfa1 (a transcription factor that induces osteoblast differentiation), PTH receptor 1 (the receptor responsible for PTH action), PTH receptor 2 (a secondary receptor that may be responsible for PTHrP action).
The data are interpretted by analyzing an increase in PCR cycle number, i.e. the number of PCR cycles necessary to obtain product. The higher the cylce number the smaller amount of starting mRNA.

[4] = test system: TRAP (GAL-4-BD-TRAP); test: Mammalian two-hybrid assay TRAP / GPC4; format: cell-based, human; details: SaOS2 cells
Chain of TRAP (GAL-4-BD-TRAP) (P13686 22-325): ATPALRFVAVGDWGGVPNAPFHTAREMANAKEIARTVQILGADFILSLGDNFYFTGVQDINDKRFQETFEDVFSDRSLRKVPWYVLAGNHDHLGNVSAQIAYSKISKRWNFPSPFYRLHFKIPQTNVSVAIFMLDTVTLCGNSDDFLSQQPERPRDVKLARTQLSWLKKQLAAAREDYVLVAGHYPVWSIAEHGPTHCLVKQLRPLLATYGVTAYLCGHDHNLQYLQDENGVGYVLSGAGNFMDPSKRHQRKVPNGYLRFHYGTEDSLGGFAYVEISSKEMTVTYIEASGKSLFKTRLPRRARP
Experimental: A mammalian two-hybrid assay was performed utilizing materials obtained from Clonetech (catalog #K1602-1). In this procedure we created two fusion proteins; a GAL4-BD-TRAP and a VP16-AD-GPC4. […] The TRAP sequence was obtained from Dr. James Bixley, University of Missouri, Columbia, Mo. GPC4 was obtained from a human osteoblast cDNA library from MG-63 cells.
GAL-4-BD-TRAP binds to the promoter of a luciferase reporter gene and the VP-16-AD-GPC4 activates RNA polymerase II activity. If the two target proteins interact with each other they will bring the binding domain protein into the vicinity of the activation domain and luciferase transcription will occur. The presence of luciferase activity in co-transfected cells is evidence for a physical association between the proteins.
In a control experiment, a second VP-16-AD protein was constructed using a GPC4 sequence deficient in the 12 amino acids identified from Clone 5 phage biopanning. This construct is termed VP-16-AD-GPC412. Deletion of the 12 amino acids from the GPC4 gene was accomplished with linker scanning mutagenesis
Pairs of plasmids were co-transfected into SaOS2 osteoblast-like cells using Lipofectamine®.

SEQ. ID No. 4: phage clone insert DNA from TRAP bio-panning, encodes peptide SEQ. ID No. 22 (DNA ACGCCGTCTCTTCCTCCGACTATGTTTCGGTTGACT; expressed or natural sequence)
Fre (consensus frequency among sequenced phage clones) [1]: 4/44

SEQ. ID No. 2: phage clone insert DNA from TRAP bio-panning, encodes peptide SEQ. ID No. 20 (DNA ACTATGGGTTTTACGGCTCCGCGGTTTCCGCATTAT; expressed or natural sequence)
Fre (consensus frequency among sequenced phage clones) [1]: 6/44

SEQ. ID No. 8: phage clone insert DNA from TRAP bio-panning, encodes peptide SEQ. ID No. 26 (DNA CGGCCAACGGAACACCAGTAGACGTCCCATGCGCAG; expressed or natural sequence)
Fre (consensus frequency among sequenced phage clones) [1]: 2/44

SEQ. ID No. 6: phage clone insert DNA from TRAP bio-panning, encodes peptide SEQ. ID No. 24 (DNA CGGCCACGGAACACCAGTAGACGTCCCATGCGCAGA; expressed or natural sequence)
Fre (consensus frequency among sequenced phage clones) [1]: 2/44

SEQ. ID No. 9: phage clone insert DNA from TRAP bio-panning, encodes peptide SEQ. ID No. 27 (DNA ACCAAGCCCCGAATCACGCGAATAAAGCGGCCAAGA; expressed or natural sequence)
Fre (consensus frequency among sequenced phage clones) [1]: 2/44

TPLSYLKGLVTV [Clone 5 peptide]
blocked osteoblast binding ([2]; 50 nM oligopeptide, about 20% of wafer area pitted): approximately 66% | interference with osteoblast binding to osteoclast lacunae (in words) ([2]; FIG. 13): interfere with this osteoblast binding in a dose dependent fashion | lowest concentration with statistically significant inhibition of osteoblast binding ([2]; pitted bone wafers): 10 pM

Lead
effect on osteoblast gene products (in words) [3]: depresses all of the above gene products including GPC4 and TRIP | Lead PCR cycle number, TRIP ([3]; control 21): 26 | Lead PCR cycle number, alkaline phosphatase ([3]; control 23): 27 | Lead PCR cycle number, osteocalcin ([3]; control 23): 26 | Lead PCR cycle number, cbfa1 ([3]; control 24): 28 | Lead PCR cycle number, PTH receptor 1 ([3]; control 28): 33 | Lead PCR cycle number, PTH receptor 2 ([3]; control 31): 32 | Lead PCR cycle number, GPC4 ([3]; higher cycle number = smaller amount of starting mRNA, control 19): 24

SEQ. ID No. 7: phage clone insert DNA from TRAP bio-panning, encodes peptide SEQ. ID No. 25 (DNA ATAATGCGGAAACCGCGGAGCCGTAAAACCCATAGT; expressed or natural sequence)
Fre (consensus frequency among sequenced phage clones) [1]: 5/44

SEQ. ID No. 3: phage clone insert DNA from TRAP bio-panning, encodes peptide SEQ. ID No. 21 (DNA TCTCAGTGGCATCCGCGGTCTGCGTCGTATCCGATG; expressed or natural sequence)
Fre (consensus frequency among sequenced phage clones) [1]: 4/44

B1: VP-16-AD-GPC4: glypican 4 (GPC4) expressed as fusion protein with VP-16 activation domain (protein)
chain: ALLAAELKSKSCSEVRRLYVSKGFNKNDAPLHEINGDHLKICPQGSTCCSQEMEEKYSLQSKDDFKSVVSEQCNHLQAVFASRYKKFDEFFKELLENAEKSLNDMFVKTYGHLYMQNSELFKDLFVELKRYYVVGNVNLEEMLNDFWARLLERMFRLVNSQYHFTDEYLECVSKYTEQLKPFGDVPRKLKLQVTRAFVAARTFAQGLAVAGDVVSKVSVVNPTAQCTHALLKMIYCSHCRGLVTVKPCYNYCSNIMRGCLANQGDLDFEWNNFIDAMLMVAERLEGPFNIESVMDPIDVKISDAIMNMQDNSVQVSQKVFQGCGPPKPLPAGRISRSISESAFSARFRPHHPEERPTTAAGTSLDRLVTDVKEKLKQAKKFWSSLPSNVCNDERMAAGNGNEDDCWNGKGKSRYLFAVTGNGLANQGNNPEVQVDTSKPDILILRQIMALRVMTSKMKNAYNGNDVDFFDISDESSGEGSGSGCEYQQCPSEFDYNATDHAGKSANEKADS
modifications: left off: large carriers
increase in luciferase activity on co-transfection with GAL-4-BD-TRAP [4]: 10-20 fold

B2: VP-16-AD-GPC412: VP-16-AD fusion of GPC4 deficient in the 12 amino acids identified from Clone 5 (protein)
chain: ALLAAELKSKSCSEVRRLYVSKGFNKNDAPLHEINGDHLKICPQGSTCCSQEMEEKYSLQSKDDFKSVVSEQCNHLQAVFASRYKKFDEFFKELLENAEKSLNDMFVKTYGHLYMQNSELFKDLFVELKRYYVVGNVNLEEMLNDFWARLLERMFRLVNSQYHFTDEYLECVSKYTEQLKPFGDVPRKLKLQVTRAFVAARTFAQGLAVAGDVVSKVSVVNPTAQCTHALLKMKPCYNYCSNIMRGCLANQGDLDFEWNNFIDAMLMVAERLEGPFNIESVMDPIDVKISDAIMNMQDNSVQVSQKVFQGCGPPKPLPAGRISRSISESAFSARFRPHHPEERPTTAAGTSLDRLVTDVKEKLKQAKKFWSSLPSNVCNDERMAAGNGNEDDCWNGKGKSRYLFAVTGNGLANQGNNPEVQVDTSKPDILILRQIMALRVMTSKMKNAYNGNDVDFFDISDESSGEGSGSGCEYQQCPSEFDYNATDHAGKSANEKADSAGVRPGAQAYLLTVFCILFLVMQREWR
modifications: left off: large carriers
increase in luciferase activity on co-transfection with GAL-4-BD-TRAP [4]: showed no difference from control levels

Reference: patent publication US7241732B2, “Compositions and methods involved in bone growth” (University of Rochester, priority 2001, dated 2007)
